Source: the supplement of paper PMC6045584
± gives the standard deviation of the averaged measurements.

Experiments:
CABOZANTINIB [1] = compound: T1, COc1cc2nccc(Oc3ccc(NC(=O)C4(C(=O)Nc5ccc(F)cc5)CC4)cc3)c2cc1OC [CABOZANTINIB]; assay: surviving fraction relative to DMSO-only wells; higher = less growth inhibition; conditions: exposure time: 5 days
Method in brief: (§1)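 Surviving fraction was calculated by normalising CellTiter-Glo luminescence to the median of DMSO-only wells. Tumour cell lines in log phase were seeded in 384-well plates at 250–500 cells per well, and 24 hours later were exposed continuously for five days to inhibitors at 0.5, 1, 5, 10, 50, 100, 500 and 1000 nM.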

VORINOSTAT [2] = compound: T2, O=C(CCCCCCC(=O)Nc1ccccc1)NO [VORINOSTAT]; assay: as above; conditions: exposure time: 5 days
Method in brief: as §1

CABOZANTINIB [3] = compound: T1, CABOZANTINIB; assay: area under dose-response curve of surviving fraction (unscaled, Aref=0) (surviving fraction x log10(nM)); higher = more resistant; conditions: exposure time: 5 days; dose range 0.5-1000 nM
Method in brief: (§2)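 Three screens per tumour cell line were run in 384-well plates at eight inhibitor concentrations from 0.5 to 1000 nM over five days. Surviving fractions, from CellTiter-Glo luminescence normalised to DMSO-only wells, were fitted with 3-parameter logistic curves in the drc R package. The reported area under the curve is the unscaled activity area. It spans log10 dose, and Aref is 0.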

[4] = compound: C[C@@H]1CN(CC(=O)Nc2ccc3c(c2)Cc2cccc(-c4cc(=O)cc(N5CCOCC5)o4)c2S3)C[C@H](C)O1; assay: as above; conditions: exposure time: 5 days; dose range 0.5-1000 nM
Method in brief: as §2

BMN-673 = compound: Cn1ncnc1[C@H]1c2n[nH]c(=O)c3cc(F)cc(c23)N[C@@H]1c1ccc(F)cc1 [BMN-673]; assay: as above; conditions: exposure time: 5 days; dose range 0.5-1000 nM
Method in brief: as §2

VORINOSTAT [5] = compound: T2, VORINOSTAT; assay: as above; conditions: exposure time: 5 days; dose range 0.5-1000 nM
Method in brief: as §2

Test System | surviving fraction (CABOZANTINIB [1]; 0.5 nM) | surviving fraction (CABOZANTINIB [1]; 1 nM) | surviving fraction (CABOZANTINIB [1]; 5 nM) | surviving fraction (CABOZANTINIB [1]; 10 nM) | surviving fraction (CABOZANTINIB [1]; 50 nM) | surviving fraction (CABOZANTINIB [1]; 100 nM) | surviving fraction (CABOZANTINIB [1]; 500 nM) | surviving fraction (CABOZANTINIB [1]; 1000 nM) | surviving fraction (VORINOSTAT [2]; 0.5 nM) | surviving fraction (VORINOSTAT [2]; 1 nM) | surviving fraction (VORINOSTAT [2]; 5 nM) | surviving fraction (VORINOSTAT [2]; 10 nM) | surviving fraction (VORINOSTAT [2]; 50 nM) | surviving fraction (VORINOSTAT [2]; 100 nM) | surviving fraction (VORINOSTAT [2]; 500 nM) | surviving fraction (VORINOSTAT [2]; 1000 nM) | area under dose-response curve (CABOZANTINIB [3]) | area under dose-response curve [4] | area under dose-response curve (BMN-673) | area under dose-response curve (VORINOSTAT [5])
HU09 BONE | 0.945 ± 0.084 | 0.999 ± 0.11 | 0.978 ± 0.055 | 1.02 ± 0.13 | 0.885 ± 0.096 | 0.638 ± 0.06 | 0.452 ± 0.043 | 0.338 ± 0.034 | 0.943 ± 0.054 | 0.922 ± 0.041 | 0.931 ± 0.095 | 0.969 ± 0.053 | 1.01 ± 0.092 | 0.968 ± 0.13 | 0.721 ± 0.072 | 0.4 ± 0.013 | 2.66 | 3.39 | 2.02 | 3.08
HUO3N1 BONE | 1.05 ± 0.034 | 1.05 ± 0.066 | 1.02 ± 0.025 | 0.953 ± 0.0036 | 0.916 ± 0.014 | 0.861 ± 0.021 | 0.742 ± 0.07 | 0.666 ± 0.008 | 1.03 ± 0.016 | 0.975 ± 0.051 | 0.988 ± 0.027 | 0.964 ± 0.032 | 1.012 ± 0.0098 | 1.06 ± 0.081 | 0.987 ± 0.032 | 0.559 ± 0.011 | 3 | 3.28 | 2.59 | 3.25
JIMT1 BREAST | 1.03 ± 0.049 | 1.04 ± 0.025 | 1.07 ± 0.029 | 1.04 ± 0.049 | 1.13 ± 0.048 | 1.1 ± 0.033 | 1.04 ± 0.043 | 1 ± 0.039 | 0.924 ± 0.0097 | 0.995 ± 0.017 | 1.01 ± 0.037 | 0.986 ± 0.013 | 1.07 ± 0.027 | 1.006 ± 0.01 | 0.686 ± 0.01 | 0.448 ± 0.037 | 3.5 | 3.11 | 2.39 | 3.11
JURKAT HAEMATOPOIETIC AND LYMPHOID TISSUE | 1.07 ± 0.015 | 1.03 ± 0.014 | 1.05 ± 0.042 | 1.05 ± 0.022 | 0.998 ± 0.036 | 0.985 ± 0.017 | 1.04 ± 0.021 | 0.972 ± 0.0044 | 1.1 ± 0.026 | 1.105 ± 0.01 | 1.09 ± 0.032 | 1.05 ± 0.02 | 1.04 ± 0.013 | 1.01 ± 0.023 | 0.696 ± 0.037 | 0.039 ± 0.001 | 3.38 | 3.48 | 2.15 | 3.06
LM7 BONE | 1.03 ± 0.091 | 0.998 ± 0.039 | 1.07 ± 0.035 | 1.04 ± 0.053 | 1.06 ± 0.11 | 1.09 ± 0.019 | 0.932 ± 0.015 | 0.889 ± 0.036 | 1.01 ± 0.1 | 0.999 ± 0.041 | 1.09 ± 0.059 | 1.03 ± 0.08 | 1.11 ± 0.12 | 1.1 ± 0.04 | 0.934 ± 0.12 | 0.8 ± 0.032 | 3.43 | 3.09 | 1.78 | 3.26
LNCAP PROSTATE | 0.622 ± 0.084 | 1.02 ± 0.041 | 0.925 ± 0.05 | 0.897 ± 0.1 | 0.936 ± 0.042 | 0.976 ± 0.057 | 0.766 ± 0.013 | 0.383 ± 0.023 | 1.11 ± 0.14 | 0.952 ± 0.22 | 0.842 ± 0.19 | 0.861 ± 0.053 | 0.904 ± 0.15 | 0.784 ± 0.042 | 0.361 ± 0.055 | 0.159 ± 0.016 | 3.11 | 4.03 | 1.43 | 2.63
MCF7 BREAST | 0.907 ± 0.019 | 0.836 ± 0.012 | 0.852 ± 0.029 | 0.863 ± 0.033 | 0.889 ± 0.015 | 0.933 ± 0.032 | 0.88 ± 0.066 | 0.91 ± 0.075 | 0.854 ± 0.026 | 0.839 ± 0.033 | 0.864 ± 0.011 | 0.781 ± 0.026 | 0.977 ± 0.034 | 0.845 ± 0.028 | 0.742 ± 0.0093 | 0.648 ± 0.0092 | 2.91 | 3.09 | 2.58 | 2.74
MDAMB134 BREAST | 0.902 ± 0.12 | 0.888 ± 0.047 | 0.896 ± 0.13 | 1.04 ± 0.14 | 0.907 ± 0.23 | 0.943 ± 0.0042 | 0.955 ± 0.086 | 0.873 ± 0.086 | 0.938 ± 0.037 | 0.937 ± 0.17 | 0.987 ± 0.0099 | 0.857 ± 0.011 | 0.935 ± 0.026 | 0.949 ± 0.16 | 0.688 ± 0.04 | 0.781 ± 0.025 | 3.19 | 2.76 | 3.21 | 2.92
MDAMB157 BREAST | 0.933 ± 0.056 | 0.953 ± 0.049 | 1 ± 0.025 | 0.959 ± 0.031 | 0.994 ± 0.048 | 0.891 ± 0.054 | 0.798 ± 0.072 | 0.733 ± 0.03 | 0.889 ± 0.089 | 0.896 ± 0.034 | 0.939 ± 0.04 | 0.973 ± 0.069 | 1.01 ± 0.065 | 0.951 ± 0.068 | 0.825 ± 0.024 | 0.321 ± 0.04 | 3.09 | 3.25 | 2.09 | 3.15
MDAMB231 BREAST | 0.853 ± 0.013 | 0.9576 ± 0.0047 | 0.969 ± 0.0068 | 0.978 ± 0.024 | 1.01 ± 0.018 | 1.005 ± 0.0054 | 0.908 ± 0.03 | 0.849 ± 0.019 | 0.995 ± 0.015 | 1 ± 0.017 | 0.993 ± 0.03 | 0.983 ± 0.025 | 1.01 ± 0.028 | 0.971 ± 0.042 | 0.805 ± 0.02 | 0.358 ± 0.0067 | 3.22 | 3.03 | 2.49 | 3.11
MDAMB361 BREAST | 0.842 ± 0.099 | 0.796 ± 0.056 | 0.816 ± 0.042 | 0.844 ± 0.06 | 0.93 ± 0.081 | 0.887 ± 0.1 | 0.903 ± 0.054 | 0.89 ± 0.12 | 0.809 ± 0.028 | 0.871 ± 0.097 | 0.796 ± 0.019 | 0.825 ± 0.037 | 0.783 ± 0.096 | 0.843 ± 0.077 | 0.596 ± 0.014 | 0.378 ± 0.015 | 2.85 | 2.33 | 2.66 | 2.51
MDAMB436 BREAST | 0.95 ± 0.067 | 0.94 ± 0.04 | 1 ± 0.17 | 0.973 ± 0.029 | 1.04 ± 0.096 | 0.951 ± 0.097 | 1.04 ± 0.058 | 1.02 ± 0.11 | 0.83 ± 0.045 | 0.905 ± 0.045 | 0.854 ± 0.056 | 0.911 ± 0.086 | 0.937 ± 0.081 | 0.835 ± 0.055 | 0.766 ± 0.072 | 0.582 ± 0.066 | 3.27 | 2.84 | 1.5 | 2.84
MDAMB453 BREAST | 1.04 ± 0.049 | 1.01 ± 0.034 | 1.09 ± 0.051 | 1.03 ± 0.052 | 1.01 ± 0.092 | 1.06 ± 0.014 | 1.06 ± 0.062 | 1.02 ± 0.041 | 0.998 ± 0.032 | 1.01 ± 0.079 | 1.03 ± 0.062 | 1.05 ± 0.065 | 1.06 ± 0.038 | 1.06 ± 0.022 | 0.785 ± 0.036 | 0.244 ± 0.0089 | 3.43 | 3.16 | 2.58 | 3.13
MFM223 BREAST | 1.12 ± 0.16 | 1.04 ± 0.048 | 1.12 ± 0.094 | 1.06 ± 0.086 | 1.16 ± 0.17 | 1.22 ± 0.073 | 1.05 ± 0.029 | 0.824 ± 0.098 | 1.05 ± 0.16 | 1.09 ± 0.047 | 1.13 ± 0.034 | 1.04 ± 0.043 | 1.18 ± 0.028 | 1.08 ± 0.03 | 0.738 ± 0.086 | 0.361 ± 0.029 | 3.65 | 3.36 | 3 | 3.21
MG63 BONE | 0.966 ± 0.019 | 1.02 ± 0.042 | 1.05 ± 0.021 | 1.03 ± 0.032 | 1.03 ± 0.019 | 0.946 ± 0.037 | 0.724 ± 0.011 | 0.696 ± 0.031 | 1.03 ± 0.021 | 0.98033 ± 0.00058 | 1.058 ± 0.0097 | 1.02 ± 0.038 | 1.081 ± 0.0029 | 1.121 ± 0.011 | 1.02 ± 0.019 | 0.8407 ± 0.0078 | 3.04 | 3.46 | 2.31 | 3.43
